Source: paper PMC6152672, “Cholinesterase Inhibitory Activities of Adamantyl-Based Derivatives and Their Molecular Docking Studies” (Molecules : A Journal of Synthetic Chemistry and Natural …, 2017)
Like-named read-outs stand apart in the source and are kept apart here.

Columns and labels:
[1] = molecular target: T1, Electric eel acetylcholinesterase (AChE, EC 3.1.1.7) (Electrophorus electricus, UniProt O42275); assay: biochemical; assay type: biochemical; conditions: for AChE inhibition effect (in words): 2a, 2r: up to a concentration of 1000 µM
T1 construct: purchased Sigma-Aldrich (St. Louis, MO, USA)
T1 sequence (O42275 24-633): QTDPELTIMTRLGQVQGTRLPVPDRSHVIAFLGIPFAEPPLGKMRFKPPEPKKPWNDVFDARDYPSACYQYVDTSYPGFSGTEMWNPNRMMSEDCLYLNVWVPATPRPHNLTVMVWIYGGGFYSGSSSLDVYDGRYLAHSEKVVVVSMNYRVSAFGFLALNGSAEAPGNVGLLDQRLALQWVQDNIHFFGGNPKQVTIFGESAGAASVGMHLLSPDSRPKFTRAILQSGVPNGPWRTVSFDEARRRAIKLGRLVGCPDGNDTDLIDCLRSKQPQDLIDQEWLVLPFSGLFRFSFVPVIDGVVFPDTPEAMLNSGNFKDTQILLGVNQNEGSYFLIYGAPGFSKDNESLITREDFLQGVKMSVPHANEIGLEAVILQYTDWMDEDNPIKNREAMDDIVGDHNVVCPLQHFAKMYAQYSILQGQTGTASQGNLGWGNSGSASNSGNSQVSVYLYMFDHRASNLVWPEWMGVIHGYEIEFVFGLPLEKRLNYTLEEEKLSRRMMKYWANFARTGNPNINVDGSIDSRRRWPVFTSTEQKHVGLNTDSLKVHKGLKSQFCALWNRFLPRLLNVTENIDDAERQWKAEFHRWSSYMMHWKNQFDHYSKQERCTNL
Excerpt: (§1) Electric eel acetylcholinesterase (AChE, EC 3.1.1.7), equine serum butyrylcholinesterase (BChE, EC 3.1.1.8), 5,5’-dithio-bis-2-nitrobenzoic acid (DTNB), and sodium phosphate dibasic (Na2HPO4) were purchased from Sigma-Aldrich (St. Louis, MO, USA). S-butyrylthiocholine chloride (BTCC) from Sigma-Aldrich (Buchs, Switzerland), acetylthiocholine iodide (ATCI) from Sigma-Aldrich (Dorset, UK) and sodium phosphate monobasic (NaH2PO4) from Sigma-Aldrich (Munich, Germany) were purchased. […] The reagents and solvents for the synthesis work were obtained commercially from Sigma-Aldrich Corporation (St. Louis, MO, USA) and used without any further purification.
(§2) AChE and BChE inhibitory activities of the compounds were determined by Ellman’s assay with minor modifications. […] After a pre-incubation of 15 min at room temperature, 10 µL of 0.50 mM DTNB was added into each well, followed by 10 µL of 0.71 mM acetylthiocholine iodide as the substrate. […] Each test was carried out in triplicate and the results were expressed as an average value. The percentage of inhibition was calculated using the following formula: (1) Percentage of inhibition=S blank -S sample/S blank × 100% where S blank is slope of the blank reaction (without compounds or a reference standard) and S sample is the slope of the sample reaction (with compounds or a reference drug).
(§3) The results of the cholinesterase inhibitory assay were expressed as means ± SD, and were labeled if p < 0.05 using ANOVA of IBM SPSS Statistics for Windows, Version 23.0 (IBM, New York, NY, USA).

[2] = molecular target: T2, equine serum butyrylcholinesterase (BChE, EC 3.1.1.8) (Equus caballus, UniProt P81908); assay: biochemical; assay type: biochemical; conditions: for BChE inhibition effect (in words): 2a, 2r: up to a concentration of 1000 µM
T2 construct: purchased Sigma-Aldrich (St. Louis, MO, USA); host or cells: equine serum
T2 sequence (P81908 whole entry): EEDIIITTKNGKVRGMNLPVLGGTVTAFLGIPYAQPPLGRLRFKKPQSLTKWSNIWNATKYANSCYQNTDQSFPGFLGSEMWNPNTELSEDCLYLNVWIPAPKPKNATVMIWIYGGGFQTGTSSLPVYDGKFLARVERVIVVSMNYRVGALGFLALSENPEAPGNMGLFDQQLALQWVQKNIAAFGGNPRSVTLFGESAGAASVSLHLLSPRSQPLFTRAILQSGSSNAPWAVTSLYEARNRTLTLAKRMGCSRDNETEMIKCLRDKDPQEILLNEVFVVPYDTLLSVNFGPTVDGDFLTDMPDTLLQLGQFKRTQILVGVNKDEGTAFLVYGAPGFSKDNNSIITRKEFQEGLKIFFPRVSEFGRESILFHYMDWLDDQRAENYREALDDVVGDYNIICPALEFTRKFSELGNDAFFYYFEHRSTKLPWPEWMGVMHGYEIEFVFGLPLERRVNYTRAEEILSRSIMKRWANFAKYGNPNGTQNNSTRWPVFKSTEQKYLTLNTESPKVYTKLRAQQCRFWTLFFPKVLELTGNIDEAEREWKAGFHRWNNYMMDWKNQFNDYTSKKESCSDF
Excerpt: as §1, §2, §3

[3] = Ellman's assay, pH 8, 15 min pre-incubation, acetylthiocholine iodide substrate, mean ± SD, triplicate, read-out: AChE IC50
[4] = Ellman's assay, pH 8, 15 min pre-incubation, butyrylthiocholine chloride substrate, mean ± SD, triplicate, read-out: BChE IC50

SMILES | AChE inhibition effect (in words) [1] | IC50 [1, 3] [µM] | BChE inhibition effect (in words) [2] | IC50 [2, 4] [µM] | IC50 [1] [µM] | IC50 [2] [µM]
O=C(OCC(=O)C12CC3CC(CC(C3)C1)C2)c1ccccc1 [Compound 2a, 2-(Adamantan-1-yl)-2-oxoethyl benzoate] | low inhibition effects | 994 ± 19.4 | low inhibition effects | > 1500 | – | –
O=C(OCC(=O)C12CC3CC(CC(C3)C1)C2)c1ccccc1Cl [Compound 2b, 2-(Adamantan-1-yl)-2-oxoethyl 2-chlorobenzoate] | – | 361 ± 30 | – | > 1500 | – | –
O=C(OCC(=O)C12CC3CC(CC(C3)C1)C2)c1cccc(Cl)c1 [Compound 2c, 2-(Adamantan-1-yl)-2-oxoethyl 3-chlorobenzoate] | – | 280 ± 17.4 | – | 971 ± 62.5 | – | –
O=C(OCC(=O)C12CC3CC(CC(C3)C1)C2)c1ccc(Cl)cc1 [Compound 2d, 2-(Adamantan-1-yl)-2-oxoethyl 4-chlorobenzoate] | – | 341 ± 34.7 | – | 1290 ± 30.1 | – | –
O=C(OCC(=O)C12CC3CC(CC(C3)C1)C2)c1ccc(Cl)cc1Cl [Compound 2e, 2-(Adamantan-1-yl)-2-oxoethyl 2,4-dichlorobenzoate] | – | 77.1 ± 7.86 | – | 307 ± 25.1 | – | –
Cc1ccccc1C(=O)OCC(=O)C12CC3CC(CC(C3)C1)C2 [Compound 2f, 2-(Adamantan-1-yl)-2-oxoethyl 2-methylbenzoate] | – | 175 ± 25.9 | – | > 1500 | – | –
Cc1cccc(C(=O)OCC(=O)C23CC4CC(CC(C4)C2)C3)c1 [Compound 2g, 2-(Adamantan-1-yl)-2-oxoethyl 3-methylbenzoate] | – | 191 ± 14.4 | – | > 1500 | – | –
Cc1ccc(C(=O)OCC(=O)C23CC4CC(CC(C4)C2)C3)cc1 [Compound 2h, 2-(Adamantan-1-yl)-2-oxoethyl 4-methylbenzoate] | – | > 1500 | – | > 1500 | – | –
COc1ccccc1C(=O)OCC(=O)C12CC3CC(CC(C3)C1)C2 [Compound 2i, 2-(Adamantan-1-yl)-2-oxoethyl 2-methoxybenzoate] | – | > 1500 | – | > 1500 | – | –
COc1cccc(C(=O)OCC(=O)C23CC4CC(CC(C4)C2)C3)c1 [Compound 2j, 2-(Adamantan-1-yl)-2-oxoethyl 3-methoxybenzoate] | – | 166 ± 19.6 | – | 223 ± 17.6 | – | –
COc1ccc(C(=O)OCC(=O)C23CC4CC(CC(C4)C2)C3)cc1 [Compound 2k, 2-(Adamantan-1-yl)-2-oxoethyl 4-methoxybenzoate] | – | > 1500 | – | > 1500 | – | –
O=C(OCC(=O)C12CC3CC(CC(C3)C1)C2)c1ccccc1[N+](=O)[O-] [Compound 2l, 2-(Adamantan-1-yl)-2-oxoethyl 2-nitrobenzoate] | – | 689 ± 44.5 | – | > 1500 | – | –
O=C(OCC(=O)C12CC3CC(CC(C3)C1)C2)c1cccc([N+](=O)[O-])c1 [Compound 2m, 2-(Adamantan-1-yl)-2-oxoethyl 3-nitrobenzoate] | – | 233 ± 25.9 | – | > 1500 | – | –
O=C(OCC(=O)C12CC3CC(CC(C3)C1)C2)c1ccc([N+](=O)[O-])cc1 [Compound 2n, 2-(Adamantan-1-yl)-2-oxoethyl 4-nitrobenzoate] | – | 349 ± 25.2 | – | 777 ± 33.6 | – | –
Nc1ccccc1C(=O)OCC(=O)C12CC3CC(CC(C3)C1)C2 [Compound 2o, 2-(adamantan-1-yl)-2-oxoethyl 2-aminobenzoate] | inactive | – | inactive | – | > 1500 | > 1500
Nc1cccc(C(=O)OCC(=O)C23CC4CC(CC(C4)C2)C3)c1 [Compound 2p, 2-(adamantan-1-yl)-2-oxoethyl 3-aminobenzoate] | inactive | > 1500 | inactive | > 1500 | – | –
Nc1ccc(C(=O)OCC(=O)C23CC4CC(CC(C4)C2)C3)cc1 [Compound 2q, 2-(adamantan-1-yl)-2-oxoethyl 4-aminobenzoate] | inactive | > 1500 | inactive | > 1500 | – | –
O=C(OCC(=O)C12CC3CC(CC(C3)C1)C2)c1ccccn1 [Compound 2r, 2-(Adamantan-1-yl)-2-oxoethyl picolinate] | low inhibition effects | > 1500 | low inhibition effects | > 1500 | – | –
